Results on six compounds are retold here after PubChem BioAssay AID192 (DTP/NCI, 2004).

The test concerns BDF1 mice, B16 melanoma ip, median survival T/C. Kind of test: NCI In Vivo Anticancer Drug Screen. Data for tumor model B16 Melanoma (intraperitoneal) in B6D2F1 (BDF1) mice. As to conditions: endpoint: median survival time, higher = longer survival. The method, boiled down: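 Tumor-bearing mice received test compound or vehicle. Survival or tumor size was then measured in both groups. The treated-group figure was divided by the control-group figure.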

Setting [1] is: dose: 0.75 mg/kg/injection, schedule: Q01DX009 (ip), vehicle: saline.
The mark [2] stands for this setting: dose: 1.5 mg/kg/injection, schedule: Q01DX009 (ip), vehicle: saline.

Several values for one entry are separate records, joined by “and”; a condition that tells them apart may be missing. Equal values may be shown once. Inconclusive results and toxic doses are left out.

Take `COc1cccc2c1C(=O)c1c(O)c3c(c(O)c1C2=O)C[C@@](O)(C(=O)CO)C[C@@H]3OC1CC(N)C(O)C(C)O1` (some centres undefined): the T/C is 163 % of control (dose: 0.12 mg/kg/injection, schedule: Q01DX009 (ip), vehicle: saline); 202 % of control (dose: 0.13 mg/kg/injection, schedule: Q01DX009 (ip), vehicle: water); 181 % of control and 202 % of control and 266 % of control (dose: 0.25 mg/kg/injection, schedule: Q01DX009 (ip), vehicle: water); 412 % of control (dose: 0.37 mg/kg/injection, schedule: Q01DX009 (ip), vehicle: saline); 154 % of control and 270 % of control (dose: 0.37 mg/kg/injection, schedule: Q03HX008 (ip), vehicle: saline); 175 % of control (dose: 0.47 mg/kg/injection, schedule: Q01DX001 (ip), vehicle: water). For the same compound, the T/C (dose: 0.5 mg/kg/injection, schedule: Q01DX009 (ip), vehicle: water) is 222 % of control and 260 % of control and 274 % of control; the T/C (dose: 0.5 mg/kg/injection, schedule: Q03HX008 (ip), vehicle: saline) is 194 % of control; the T/C (dose: 0.75 mg/kg/injection, schedule: Q01DX001 (ip), vehicle: saline) was 162 % of control; the T/C (dose: 0.75 mg/kg/injection, schedule: Q01DX001 (ip), vehicle: water) was 154 % of control; the T/C under setting [1] was 154 % of control and 412 % of control; the T/C (dose: 0.75 mg/kg/injection, schedule: Q03DX001 (ip), vehicle: saline) is 168 % of control. In addition, the T/C was 164 % of control and 412 % of control (dose: 0.75 mg/kg/injection, schedule: Q03HX008 (ip), vehicle: saline); 210 % of control (dose: 0.75 mg/kg/injection, schedule: Q04DX003 (ip), vehicle: saline); 194 % of control and 197 % of control (dose: 0.94 mg/kg/injection, schedule: Q01DX001 (ip), vehicle: water); 260 % of control and 274 % of control and 339 % of control (dose: 1.0 mg/kg/injection, schedule: Q01DX009 (ip), vehicle: water); 169 % of control (dose: 1.0 mg/kg/injection, schedule: Q03HX008 (ip), vehicle: saline); 210 % of control (dose: 1.25 mg/kg/injection, schedule: Q01DX001 (ip), vehicle: saline). Besides, the T/C (dose: 1.4 mg/kg/injection, schedule: Q04DX003 (ip), vehicle: saline) was 102 % of control; the T/C (dose: 1.44 mg/kg/injection, schedule: Q04DX003 (ip), vehicle: water) is 158 % of control and 295 % of control; the T/C (dose: 1.5 mg/kg/injection, schedule: Q01DX001 (ip), vehicle: saline) was 100 % of control and 114 % of control; the T/C under setting [2] was 164 % of control and 412 % of control; the T/C (dose: 1.5 mg/kg/injection, schedule: Q03DX001 (ip), vehicle: saline) was 412 % of control; the T/C (dose: 1.5 mg/kg/injection, schedule: Q03HX008 (ip), vehicle: saline) was 206 % of control. Further, the T/C reads like this: (dose: 1.5 mg/kg/injection, schedule: Q04DX003 (ip), vehicle: saline) 152 % of control and 412 % of control; (dose: 1.88 mg/kg/injection, schedule: Q01DX001 (ip), vehicle: water) 241 % of control and 308 % of control; (dose: 1.9 mg/kg/injection, schedule: Q01DX001 (ip), vehicle: water) 165 % of control; (dose: 2.0 mg/kg/injection, schedule: Q01DX009 (ip), vehicle: water) 219 % of control and 275 % of control; (dose: 2.0 mg/kg/injection, schedule: Q03HX008 (ip), vehicle: saline) 152 % of control; (dose: 2.4 mg/kg/injection, schedule: Q04DX003 (ip), vehicle: saline) 105 % of control. Also, the T/C was 155 % of control and 233 % of control (dose: 2.4 mg/kg/injection, schedule: Q04DX003 (ip), vehicle: water); 177 % of control (dose: 3.0 mg/kg/injection, schedule: Q03DX001 (ip), vehicle: saline); 162 % of control and 412 % of control (dose: 3.0 mg/kg/injection, schedule: Q04DX003 (ip), vehicle: saline); 214 % of control and 308 % of control (dose: 3.75 mg/kg/injection, schedule: Q01DX001 (ip), vehicle: water); 111 % of control (dose: 3.8 mg/kg/injection, schedule: Q01DX001 (ip), vehicle: water); 184 % of control and 202 % of control (dose: 4.0 mg/kg/injection, schedule: Q04DX003 (ip), vehicle: water). Also, the T/C (dose: 5.9 mg/kg/injection, schedule: Q04DX003 (ip), vehicle: saline) is 428 % of control; the T/C (dose: 6.0 mg/kg/injection, schedule: Q01DX001 (ip), vehicle: saline) was 308 % of control; the T/C (dose: 6.0 mg/kg/injection, schedule: Q03DX001 (ip), vehicle: saline) is 264 % of control; the T/C (dose: 6.0 mg/kg/injection, schedule: Q04DX003 (ip), vehicle: saline) was 189 % of control; the T/C (dose: 6.67 mg/kg/injection, schedule: Q04DX003 (ip), vehicle: saline) was 118 % of control; the T/C (dose: 6.67 mg/kg/injection, schedule: Q04DX003 (ip), vehicle: water) was 198 % of control and 321 % of control. The T/C reads like this: (dose: 8.0 mg/kg/injection, schedule: Q04DX003 (ip), vehicle: saline) 165 % of control and 180 % of control; (dose: 9.0 mg/kg/injection, schedule: Q04DX003 (ip), vehicle: saline) 103 % of control; (dose: 12.0 mg/kg/injection, schedule: Q03DX001 (ip), vehicle: saline) 100 % of control; (dose: 13.3 mg/kg/injection, schedule: Q01DX001 (ip), vehicle: saline) 150 % of control and 155 % of control; (dose: 32.0 mg/kg/injection, schedule: Q01DX001 (ip), vehicle: saline) 40 % of control; (dose: 32.0 mg/kg/injection, schedule: Q01DX001 (ip), vehicle: water) 116 % of control. Besides, the T/C (dose: 64.0 mg/kg/injection, schedule: Q01DX001 (ip), vehicle: saline) was 25 % of control; the T/C (dose: 128.0 mg/kg/injection, schedule: Q01DX001 (ip), vehicle: saline) is 20 % of control; the T/C (dose: 125.0 micrograms/kg/injection, schedule: Q01DX009 (ip), vehicle: other) is 178 % of control; the T/C (dose: 250.0 micrograms/kg/injection, schedule: Q01DX009 (ip), vehicle: other) is 246 % of control; the T/C (dose: 500.0 micrograms/kg/injection, schedule: Q01DX009 (ip), vehicle: other) was 379 % of control; the T/C (dose: 518.0 micrograms/kg/injection, schedule: Q01DX004 (ip), vehicle: other) was 112 % of control. In addition, the T/C runs as follows: (dose: 864.0 micrograms/kg/injection, schedule: Q01DX004 (ip), vehicle: other) 122 % of control; (dose: 1000.0 micrograms/kg/injection, schedule: Q01DX009 (ip), vehicle: other) 380 % of control; (dose: 2000.0 micrograms/kg/injection, schedule: Q01DX009 (ip), vehicle: other) 382 % of control; (dose: 4000.0 micrograms/kg/injection, schedule: Q01DX004 (ip), vehicle: other) 100 % of control and 112 % of control.
`CCCCCCCCCCCCCCCCCCN(C)C`: the T/C reads like this: (dose: 6.25 mg/kg/injection, schedule: Q01DX009 (ip), vehicle: Klucel (hydroxypropylcellulose) (HPC)) 104 % of control; (dose: 12.5 mg/kg/injection, schedule: Q01DX009 (ip), vehicle: Klucel (hydroxypropylcellulose) (HPC)) 107 % of control; (dose: 25.0 mg/kg/injection, schedule: Q01DX009 (ip), vehicle: Klucel (hydroxypropylcellulose) (HPC)) 89 % of control and 101 % of control.
Turning to `O=C(O)CC[P+](c1ccccc1)(c1ccccc1)c1ccccc1`, the T/C is 101 % of control (dose: 100.0 mg/kg/injection, schedule: Q04DX003 (ip), vehicle: saline); 116 % of control (dose: 200.0 mg/kg/injection, schedule: Q04DX003 (ip), vehicle: saline); 116 % of control (dose: 400.0 mg/kg/injection, schedule: Q04DX003 (ip), vehicle: saline).
Take `CC12CCC(O)CC1CCC1C2CCC2(C)C(c3ccc(=O)oc3)C(O)C3OC132` (centres undefined): the T/C is, setting by setting: (dose: 0.94 mg/kg/injection, schedule: Q01DX009 (ip), vehicle: Klucel (hydroxypropylcellulose) (HPC)) 103 % of control; (dose: 1.87 mg/kg/injection, schedule: Q01DX009 (ip), vehicle: Klucel (hydroxypropylcellulose) (HPC)) 98 % of control; (dose: 3.5 mg/kg/injection, schedule: Q01DX009 (ip), vehicle: Klucel (hydroxypropylcellulose) (HPC)) 94 % of control.
For the compound `CC(=N\O)/C(C)=N/O.CC(=N\O)/C(C)=N/O.CCCC1CC[N-]CC1.CCCC1CC[N-]CC1.CCCC1CC[N-]CC1.CCCC1CC[N-]CC1.[Cl-].[Cl-].[Cl][Rh][Cl].[Rh+3]`, the T/C (dose: 0.19 mg/kg/injection, schedule: Q01DX009 (ip), vehicle: saline) was 104 % of control; the T/C (dose: 0.38 mg/kg/injection, schedule: Q01DX009 (ip), vehicle: saline) was 107 % of control; the T/C under setting [1] was 104 % of control; the T/C under setting [2] is 103 % of control; the T/C (dose: 3.0 mg/kg/injection, schedule: Q01DX009 (ip), vehicle: saline) was 105 % of control.
For `CCCCCCCCCCCCCCCC(=O)N(CCC#N)CCCCCCCCCN(CCC#N)C(=O)CCCCCCCCCCCCCCC`, the T/C by setting is: (dose: 12.5 mg/kg/injection, schedule: Q04DX003 (ip), vehicle: Klucel (hydroxypropylcellulose) (HPC)) 88 % of control; (dose: 25.0 mg/kg/injection, schedule: Q04DX003 (ip), vehicle: Klucel (hydroxypropylcellulose) (HPC)) 90 % of control.
